Patent US20070066594A1, “Crystalline forms fenoldopam mesylate” (priority 2005, published 2007)

How the values were obtained:
Type in all cases: physicochemical
[1] = Stability under humid conditions: crystalline form by XRD after exposure to relative humidity
Description: (§1) X-Ray powder diffraction data were obtained by using methods known in the art with a SCINTAG powder X-Ray diffractometer model X'TRA equipped with a solid-state detector. The X-Ray radiation was copper radiation, having a wavelength of 1.5418 Å. A round aluminum sample holder with zero background was used for the measurements. All peak positions are within ±0.2° 2θ.
(§2) TGA analysis determined that this form has a water content of 7.8 percent by weight water.
Fenoldopam mesylate Type I was stored at 100 percent relative humidity for 8 days at room temperature. […]

[2] = Hygroscopicity: water content by TGA after exposure to relative humidity; details: for Water content (by TGA): Table 4
Description: The TGA analysis was performed with a Mettler M3 thermogravimeter with samples of about 8 mg and a scan rate of 10° C./min from 25° C. to 200° C., subtracting a blank from the sample. The TGA oven was constantly purged with nitrogen gas at a flow rate of 40 ml/min, and standard 150 μl alumina crucibles covered by lids with 1 hole were used.
as §2
Fenoldopam Type VI was produced when a mixture of about 50 mg of fenoldopam mesylate Type I, produced in Examples 2 and 4, was exposed to 0 percent relative humidity at room temperature for 8 days.

[3] = Stability on drying/heating at 80° under vacuum, crystalline form by XRD; details: dried 16 hours at 80° under vacuum; methanesulfonate
Description: as §1
An 81.5 gram sample of the product produce in Example 17 was dried for 16 hours at 80° under vacuum, providing a yield of 81.2 grams, having a water content of 0.05 percent by weight, and an isopropanol content of 1620 ppm. An XRD analysis confirmed the product sample was fenoldopam mesylate Type II.
A 4.08 gram sample of the product of Example 22 was dried at 80° C. under vacuum for 16 hours, providing a yield of 3.95 grams, having a water content of 0.02 percent by weight and a methanol content of 766 ppm. An XRD analysis confirmed the product sample was fenoldopam mesylate Type III.

[4] = 100 percent relative humidity, more than about 7 days, room temperature

CS(=O)(=O)O.Oc1ccc(C2CNCCc3c2cc(O)c(O)c3Cl)cc1 (centres unmarked) [Type I, 6-chloro-2,3,4,5-tetrahydro-1-(4-hydroxyphenyl)-[1H]-3-benzazepine-7,8-diol methanesulfonate]
Time the crystalline form is stable (remains as the Type I dihydrate) on exposure to relative humidity ([1]; 0 to 100% relative humidity): more than 5 days | Crystalline form (by XRD) ([1]; 20 % RH, 8 days, room temperature): Type I | Crystalline form (by XRD) ([1]; 40 % RH, 8 days, room temperature): Type I | Crystalline form (by XRD) ([1]; 60 % RH, 8 days, room temperature): Type I | Crystalline form (by XRD) ([1]; 80 % RH, 8 days, room temperature): Type I | Crystalline form (by XRD) ([1]; 100 % RH, 8 days, room temperature, methanesulfonate): remains fenoldopam mesylate Type I | Crystalline form (by XRD) ([1]; Table 4, 0 % RH, 8 days, room temperature): Type VI | Crystalline form (by XRD) ([1]; Table 4, 20 % RH, 8 days): Type I | Crystalline form (by XRD) ([1]; Table 4, 40 % RH, 8 days): Type I | Crystalline form (by XRD) ([1]; Table 4, 60 % RH, 8 days): Type I | Crystalline form (by XRD) ([1]; Table 4, 80 % RH, 8 days): Type I | Crystalline form (by XRD) ([1]; Table 4, initial): Type I | Crystalline form (by XRD) ([1]; initial sample): Type I | Water content (by TGA) ([2]; 0 % RH, 8 days, room temperature): 0.9 | Water content (by TGA) ([2]; 20 % RH, 8 days): 7.9 | Water content (by TGA) ([2]; 40 % RH, 8 days): 8.0 | Water content (by TGA) ([2]; 60 % RH, 8 days): 7.9 | Water content (by TGA) ([2]; 80 % RH, 8 days): 8.0 | Water content (by TGA) ([2]; initial): 8.0

CS(=O)(=O)O.Oc1ccc(C2CNCCc3c2cc(O)c(O)c3Cl)cc1 (centres unmarked) [Type III, 6-chloro-2,3,4,5-tetrahydro-1-(4-hydroxyphenyl)-[1H]-3-benzazepine-7,8-diol methanesulfonate]
Crystalline form (by XRD) ([1]; Table 3, 80 % RH, 8 days): Type III | Crystalline form (by XRD) ([1]; Table 3, 100 % RH, 8 days): Type III | Crystalline form (by XRD) ([1]; Table 3, initial sample): Type III | Crystalline form (by XRD) after drying [3]: Type III

CS(=O)(=O)O.Oc1ccc(C2CNCCc3c2cc(O)c(O)c3Cl)cc1 (centres unmarked) [Type II, 6-chloro-2,3,4,5-tetrahydro-1-(4-hydroxyphenyl)-[1H]-3-benzazepine-7,8-diol methanesulfonate, reference compound]
Crystalline form (by XRD) after drying [3]: Type II

CS(=O)(=O)O.Oc1ccc(C2CNCCc3c2cc(O)c(O)c3Cl)cc1 (centres unmarked) [Type V, 6-chloro-2,3,4,5-tetrahydro-1-(4-hydroxyphenyl)-[1H]-3-benzazepine-7,8-diol methanesulfonate]
Crystalline form after humidity exposure (by PXRD) [1, 4]: transforms this form to Type I | Water content (by TGA) after humidity exposure [2, 4]: 7.8 percent by weight
